# Source: patent US20050002904A1, “Uses of vascular endothelial growth factor and type I collagen inducible protein (VCIP)” (priority 2003, published 2005)
# Where no end group is shown, it is not given here.
# Columns and labels:
# [1] = tested on: p120catenin; assay: Far-western assay with GST-PAP2b-cyto fusion protein; type: binding, human; details: 2 μg/ml fusion protein
# Protocol: FIGS. 17A-H show interaction of PAP2b/VCIP with p120 catenin in endothelial cells. FIGS. 17A-B: Clarified cell lysates were prepared from endothelial cells infected with indicated PAP2b retroviral constructs A-E as shown in FIG. 14 and subjected to immunoprecipitation with: anti-HA (lanes 1, 2, 4, 5 and 6) or anti-p120 catenin (lane 3) and analyzed by immunoblotting with the indicated antibodies. FIGS. 17C-H: Far western analysis. Endothelial cells were solubilized in RIPA buffer, and immunoprecipitated using indicated antibodies (5 μg/1.5 mg protein). The membrane shown in FIG. 17C was incubated with 2 μg/ml of Gst-PAP2b-cyto fusion protein for 1 hour, washed with 1×TBS+tween (0.1%) and analyzed by immunoblotting with anti-Gst monoclonal antibodies (2 μg/ml). Individual lanes from the blot was excised and probed with: anti-VE-cadherin (FIG. 17D), anti-p120ctn (FIG. 17E), anti-β-catenin (FIG. 17F), anti-γ-catenin (FIG. 17G), and β1-integrin (FIG. 17H) monoclonal antibodies. […]
# To further substantiate that the C-terminal cytoplasmic domain of PAP2b was indeed the region involved in the interaction, far-western assay (Wary et al., 1996) was performed using recombinant affinity purified GST-PAP2b-cyto fusion protein as follows. […] After rinsing with TBS, pH 7.5, the membrane was incubated with anti-Gst mouse monoclonal antibodies and detected as previously described (Schor et al., 1996). […]
# [2] = tested on: WT and MT HEK293 cells; assay: Cell aggregation assay, mixed dye-labelled WT and MT cells; type: cell-based; details: WT mixed with MT cells; 12 h
# Protocol: FIGS. 9A-F show VCIP mediates heterophilic cell-cell interactions. Magnification, 200×. Bar, […]. *, P<0.05. The images of cell aggregates appear out of focus. FIG. 9A: Representative photomicrograph of a mixture of WT and MT cells labeled with red (Dil) and green (DiO) fluorescent dyes at 0 h. FIG. 9B: Small and large cell-aggregates were visible after 6 h; green arrowheads indicate the most productive cell aggregation (yellow). FIG. 9C: Representative large cell aggregates are shown after 12 h. FIG. 9D: Cells co-incubated with the GRGDSP peptide for 12 h. FIG. 9E: Cells co-incubated with anti-VCIP-RGD antibody (25 μg/ml) after 12 h. All experiments were performed at least three times in triplicates.
# To monitor aggregation, cells were labeled with optimal non-toxic concentrations of fluorescent dyes. This assay was performed essentially according to the protocol described by Niessen and Gumbiner (2002), with minor modifications. […] The inhibitory effects of EDTA, peptides and antibodies on cell aggregation were determined at the end of 12 h. […] Experiments were performed at least three times with each time point analyzed in triplicate. Only productive cell aggregates (yellow) were counted. […] Numbers were expressed as the percentage of total aggregates counted. […]
# [3] = tested on: SW480 cells on monolayer HUVECs; assay: Adhesion of SW480 cells to HUVEC monolayer; type: cell-based, human; details: pre-incubation; GRGDSP 10, 20 μM; antibody 20, 40 μg/ml; 1 hr
# Protocol: FIGS. 7A-O show the effects of VCIP on adhesion of cadherin-deficient SW480 cells to HUVECs monolayer. SW480-C, SW480-WT, and SW480-MT cells were non-enzymatically detached from dishes, washed, passed through a cell strainer, counted, and labeled with a fluorescent dye (red) prior to experiments. HUVECs were seeded onto 12-well dishes in complete media and allowed to form a 100% confluent monolayer on the day of assay. Monolayer HUVECs were washed once each with PBS and HCMF, and then preincubated in HCMF supplemented with Ca^2+/Mg^2+ for 10 min at 37° C. SW480 cells (0.25×10^6) were finely resuspendend in 500 μl of HCMF buffer supplemented with Ca^2+/Mg^2+, layered onto the monolayer, and allowed to attach at 37° C. for 1 hr. Unattached cells were removed by washing with PBS and adherent cells were fixed with 4% paraformaldehyde. The number of cells adhered to the monolayer were determined using a phase-contrast microscope. Experiments were performed at least three times in triplicates, with three independent clones. […] In each experiment, the relative percentage of cell adhesion was calculated and presented as mean±SD. […] Data are expressed as mean±S.D. (n≧7), *P<0.05. […]
Substance,interaction with p120catenin [1],"reaction with VE cadherin, β- and γ-catenin, or β1-integrin polypeptides [1]",inhibition of cell aggregation [2],blocking of adhesion of pLNCX2-VCIP-RGD SW480 cells to monolayer HUVECs [3]
GST-PAP2b-c-cyto: recombinant affinity purified GST fusion of the C-terminal cytoplasmic domain of PAP2b (LSLPAPAIRKEILSPVDIIDRNNHHNMM; also: GST fusion),sufficient to interact with p120catenin,did not react,,
GRADSP [control peptide],,,did not,
GRGDSP (CHAIN a peptide containing RGD sequence),,,dose-dependently inhibited cell aggregation,blocked
